In publication PMC10065799, “High-throughput profiling of sequence recognition by tyrosine kinases and SH2 domains using bacterial peptide display” (eLife, 2023):

Assays:
Assay in all cases: pTyr-Var library bacterial peptide display kinase screen (enrichment scores)
EPHB1 kinase domain = format: biochemical, human; conditions: sheet EPHB1; effect of the variant peptide relative to its reference peptide in the pTyr-Var library screen (enrichment scores)
EPHB2 kinase domain = format: biochemical, human; conditions: sheet EPHB2; effect of variant peptide relative to its reference peptide in the pTyr-Var library screen (enrichment scores)
Fer kinase domain = format: biochemical, mouse; conditions: sheet "Fer"; value of the variant peptide against its reference peptide in the pTyr-Var library screen with Fer
c-Abl kinase domain = target: T1, c-Abl kinase domain (Mus musculus, UniProt P00520); format: biochemical
T1 sequence (P00520 242-493 limits assumed): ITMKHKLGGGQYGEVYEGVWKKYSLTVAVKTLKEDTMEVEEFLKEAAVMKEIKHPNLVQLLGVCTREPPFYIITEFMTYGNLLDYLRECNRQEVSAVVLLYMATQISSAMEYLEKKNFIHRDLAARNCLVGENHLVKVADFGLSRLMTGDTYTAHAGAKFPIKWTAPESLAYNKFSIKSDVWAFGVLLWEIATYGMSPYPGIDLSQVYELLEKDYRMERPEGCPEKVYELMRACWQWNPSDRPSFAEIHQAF

c-Src kinase domain = c-Src kinase domain (Homo sapiens, UniProt P12931); format: biochemical; conditions: sheet "Src"
[1] = sheet "Abl", effect of variant peptide relative to its reference peptide in pTyr-Var library screen (enrichment)
[2] = fig5-data2, sheet "Abl", Screen for the variant/reference peptide pair, pTyr-Var library
[3] = variant peptide versus its reference peptide in the pTyr-Var library screen
[4] = effect of the variant peptide relative to its reference peptide in the pTyr-Var library screen
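Also: log2 fold change in enrichment of variant over reference.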

In the case of LKDEDYLKDTV [HAUS3_Y582_I586T], the Screen (EPHB1 kinase domain) was 0.8437 and the Screen (EPHB2 kinase domain) was 0.5716.
LTVVIYVLVGR [EPHA3_Y561_I564V] gave a Screen (Fer kinase domain) of -2.144 and a Screen (EPHB2 kinase domain) of -4.573.
Work on AALRLYHVSDS [VIL1_Y256_K254R] yielded a Screen (c-Abl kinase domain; [1]) of 2.11.
In the case of NSAFFYKTAEE [CCT6B_Y250_G247A], the Screen (c-Abl kinase domain; [2]) was 0.06962.
In the case of PNRILYGDFQQ [MYH7_Y715_R719Q], the Screen (c-Src kinase domain; [3]) was -0.8592.
FQKDVYNIPPS [NEDD9_Y177_D178N_YF] was tested, and the Screen (c-Src kinase domain; [3]) was -0.2537 and the Screen (EPHB2 kinase domain) was -2.279.
GMTLSYLFWEP [NDUFS8_Y74_R77W] showed a Screen (Fer kinase domain) of 3.343.
Work on NHQFDYTFHWT [CSNK1A1_Y294_D297H_YF] yielded a Screen (Fer kinase domain) of 3.7 and a Screen (EPHB1 kinase domain) of 1.13.
In the case of TKGNEYVFRVA [TTN_Y30829_E30825K], the Screen (c-Abl kinase domain; [1]) was -2.941.
In the case of GDEVEYMSVSF [GCLC_Y53_L55S], the Screen (Fer kinase domain) was -1.292.
In the case of FSSLGYPLPEG [ZSWIM4_Y87_P89L_YF], the Screen (c-Abl kinase domain; [1]) was 1.474.
QPRDIYHQTWA [GBA_Y244_G241R] was tested, and the Screen (c-Src kinase domain; [4]) was -0.7899.
HKNNNYEPSLF [BRCA2_Y57_N60S] was tested, and the Screen (EPHB1 kinase domain) was -1.049.
Sequence ARKCKYFKKHE [NFIX_Y40_R38C] has a Screen (c-Abl kinase domain; [2]) of 1.494.
Work on AVARMYGVLPW [PLP1_Y207_D203V] yielded a Screen (c-Src kinase domain; [3]) of -1.597 and a Screen (EPHB2 kinase domain) of -2.007.
For LHVKMYNFLRS [ADGRG7_Y760_R756H], the Screen (EPHB2 kinase domain) was -0.4432.
For LEQDEYALHSH [HADHB_Y244_R247H], the Screen (EPHB2 kinase domain) was -1.049.
DFFDLYGGQKF [PTPN11_Y66_E69Q_YF] gave a Screen (c-Src kinase domain; [3]) of 1.294.
KFADVYVGICL [B3GALNT1_Y269_E266A] gave a Screen (c-Src kinase domain; [4]) of -1.369 and a Screen (Fer kinase domain) of -1.445.
SLDLSYFHTSS [EMD_Y181_P183H_YF] showed a Screen (c-Abl kinase domain; [2]) of -1.954.
VKFGAYINDFK [GLB1_Y488_N484K_YF] gave a Screen (c-Abl kinase domain; [2]) of -0.5379.
With LPEHPYHSRPR [NDUFA8_Y142_N140H] the Screen (c-Abl kinase domain; [2]) was -0.8491, the Screen (c-Src kinase domain; [3]) was -0.5324 and the Screen (EPHB2 kinase domain) was 1.643.
DGPVNYEEFVQ [CALM2_Y139_Q136P] gave a Screen (EPHB1 kinase domain) of -0.2324.
PVQAVYQKVVA [HBB_Y131_A130V] gave a Screen (c-Src kinase domain; [4]) of 1.787.
RVSSVYTRSTG [CCR5_Y339_A335V] showed a Screen (c-Abl kinase domain; [2]) of 1.763.
VVQGLYKSMRK [KBTBD2_Y250_P254R] showed a Screen (c-Abl kinase domain; [2]) of 0.59.
In the case of SENFTYIWWLN [PSG4_Y271_K267E_YF], the Screen (c-Abl kinase domain; [2]) was 0.9727.
With ELAVNYQEQAS [SLC9A9_Y591_I589V] the Screen (c-Abl kinase domain; [1]) was 1.481.
Sequence IVTLKYPIEHG [ACTB_Y69_L65V] has a Screen (c-Abl kinase domain; [2]) of -1.416.
With PNRILYRDFRQ [MYH7_Y715_G716R] the Screen (c-Src kinase domain; [3]) was -3.613.
Sequence KGEDFYSVTCH [FHL1_Y149_C150S] has a Screen (c-Src kinase domain; [4]) of 2.7 and a Screen (Fer kinase domain) of 2.793.
PGVNFYFQVSA [TTN_Y28166_R28168Q_YF] was tested, and the Screen (c-Abl kinase domain; [1]) was -2.22.
Sequence LINSVYGCSRQ [TMPRSS6_Y290_T287N] has a Screen (c-Src kinase domain; [3]) of 1.631.
HPAGNYSLSSV [ARFGAP3_Y473_Q468H] showed a Screen (c-Abl kinase domain; [2]) of -0.2234.
With FVSLIYTNFEA [GSTP1_Y109_I105V_YF] the Screen (c-Src kinase domain; [4]) was 0.3433 and the Screen (Fer kinase domain) was 0.7121.
EDKFMYLEFPQ [PTEN_Y240_F241L] gave a Screen (c-Src kinase domain; [3]) of -1.097.
With VKANTYEKFWL [GATM_Y100_P105L_YF] the Screen (c-Src kinase domain; [4]) was -1.276 and the Screen (Fer kinase domain) was 2.288.
With GCKNRYDEDKP [THAP1_Y14_K16E] the Screen (c-Abl kinase domain; [1]) was 1.101.
EAVKNYTEKRG [PBRM1_Y672_D674E] showed a Screen (c-Abl kinase domain; [2]) of -0.8395.
Work on LAVNPYGPPDL [TTN_Y22579_P22584L] yielded a Screen (c-Abl kinase domain; [1]) of -1.7.
Sequence PIGRKYKKVRF [F8_Y442_R437P] has a Screen (c-Abl kinase domain; [2]) of 0.1866.
For KMKGEYFRFLA [YWHAG_Y130_D129E_YF], the Screen (c-Abl kinase domain; [1]) was -2.114 and the Screen (c-Src kinase domain; [3]) was 0.3869.
With GLTSTYVGIRK [ROBO1_Y932_A933V] the Screen (c-Src kinase domain; [3]) was -1.42.
Work on QRVLLYVQRET [GRHL3_Y518_R520Q] yielded a Screen (c-Abl kinase domain; [2]) of -0.6307.
Sequence EAGKVYLKAAM [CBFB_Y96_P100A] has a Screen (c-Abl kinase domain; [2]) of 0.4405.
Work on REETTYLPLTS [ICAM3_Y527_S525T] yielded a Screen (c-Src kinase domain; [4]) of -0.5459.
TNFSLYLRSLE [MTM1_Y71_R69S_YF] gave a Screen (c-Abl kinase domain; [2]) of -0.4541.
Sequence GEFFRYLAEVA [YWHAG_Y133_D129E_YF] has a Screen (c-Abl kinase domain; [1]) of 3.326.
Work on QLQVFYATRDQ [MIPEP_Y579_L582R] yielded a Screen (c-Src kinase domain; [4]) of -2.05, a Screen (Fer kinase domain) of -2.265 and a Screen (EPHB2 kinase domain) of -1.278.
QHVPDYRQNGF [PCDHGA1_Y890_V894G_YF] showed a Screen (c-Abl kinase domain; [2]) of -1.497.
In the case of MASISYDFCRV [BST2_Y6_T4I_YF], the Screen (Fer kinase domain) was -0.4486.
